Experimental data: patent US12643882B2, “Inhibitors of human respiratory syncytial virus and metapneumovirus” (priority 2022, dated 2026)
Read-outs that look alike come from different tables or passages of the source.

What was measured:
[1] = test system: hMPV-GFP virus; assay: microbe, parasite or virus in culture; type: cell-based, human metapneumovirus
Procedure: GFP expressing rgHMPV #3 p3 was generated in Dr. Buchholz's lab (Biacchesi S. et al., J Virol. 2007 June; 81(11): 6057-6067) and propagated in VERO cells (ATCC Cat #CCL-81) with a Multiplicity of Infection (MOI) of 0.1. Virus was harvested 4 days after infection by collecting cultured material and was freeze-thaw cycled in liquid nitrogen twice. Working virus stocks were generated from thawing frozen samples in 37° C. water bath, which were centrifuged at 218 g for 15 min at 4° C. 1/10 of 10×SPG (Biological Industries 06-3061-01-5A) were added and then mixed. The supernatant was aliquoted, frozen in liquid nitrogen, and then transferred to a −80° C. freezer for storage. Virus titer was determined by performing titration test in 96-well plates and calculate approximate virus titer using GFP event/well data.
Compound plates were prepared by dispensing compounds dissolved in DMSO into wells of a 384 well Corning 3985 polystyrene flat clear bottom optical imaging microplate (202.5 nL/well) using an ECHO acoustic dispenser. Each compound was tested in 10-point serial 3-fold dilution (typical final concentrations: 40,300 nM-2 nM). […] Continuous culture of VERO cells was maintained in complete culture media (OptiMEM supplemented with 2 mM GlutaMAX™ and 100 U/ml Penicillin-Streptomycin). To set up the assay, VERO cells were trypsinized with 0.25% Trypsin-EDTA until cells were dislodged, then cells were re-suspended with 1 mL FBS. Cells were spun down at 300 g for 5 minutes and cells were washed twice with culture media and counted using default parameters on ViCell. Cells were then diluted to 100,000 cells/mL (5,000 cells/50 μL) in complete culture media+TrypLE Select (80 μL/mL). hMPV-GFP virus was added to cells at 125,000 pfu/mL (MOI=1.25) and were mixed by gentle inversion. 10 μL/well of 100% DMSO was dispensed to CellTiter-Glo (CTG) assay Max_E controls wells. Cells were dispensed at 50 μL/well using Bravo and 50 μL filtered tips into compound plates. Plates were covered with MicroClime lids and loaded with 7.5 mL of assay media to minimize evaporation. Plates were lightly shaken for 10 minutes at room temperature and then incubated at 37° C. and 5% CO2 for 48 hrs. Following incubation, distinct GFP-expressing cells were counted using an Acumen imaging system with appropriate settings. A same-well CTG assay was performed by adding 10 μL/well reconstituted CellTiter-Glo reagent (Promega G7573) and plates were read on PerkinElmer Envision according to manufacturer's instructions. Raw data were loaded and analyzed in ActivityBase. Antiviral IC50 and cytotoxicity CC50 values were determined using a 4 parameter logistic fit based on the Levenberg-Marquardt algorithm. Model: 205-4 Parameter Logistic. • References: Wen Z, Citron M, Bett A J, Espeseth A S, Vora K A, Zhang L, DiStefano D J. Development and application of a higher throughput RSV plaque assay by immunofluorescent imaging. J Virol Methods. 2019 January; 263:88-95. doi: 10.1016/j.jviromet.2018.10.022. Epub 2018 Oct. 28. PMD: 30381239. • Biacchesi S, Murphy B R, Collins P L, Buchholz U J. Frequent frameshift and point mutations in the SH gene of human metapneumovirus passaged in vitro. J Virol. 2007 June; 81(11):6057-67. doi: 10.1128/JVL.00128-07. Epub 2007 Mar. 21. PMID: 17376897; PMCID: MC 1900297. Assay Data

[2] = test system: RSV-A2-GFP virus; assay: microbe, parasite or virus in culture; type: cell-based, Human Respiratory Syncytial Virus
Procedure: To set up the assay, ARF vials were thawed in a 37° C. water bath and a control compound was resuspended in assay media DMEM (Dulbecco's Modified Eagle Medium) containing 2% FBS, 100 U/ml Penicillin-Streptomycin.
GFP sequence was derived from pJTI™ R4 Dest CMV N-EmGFP pA Vector (Invitrogen) and was cloned into the intergenic sequence between wild-type RSV-A2 P and M genes using standard recombineering techniques. Recombinant RSV-A2-GFP was propagated in Hep2 cells (human cells contain HeLa marker chromosomes and were derived via HeLa contamination, ATCC CCL-23) with a Multiplicity of Infection (MOI) of 0.1. Virus was harvested 3 days after infection by collecting all culture material and then freeze-thawing the mixture for 5 min. Working virus stocks were generated by thawing frozen viral cultures in 37° C. water bath, which were centrifuged at 218 g for 15 min at 4° C. 1/10 of 10×SPG (Biological Industries 06-3061-01-5A) were added and then mixed. The supernatant was aliquoted, frozen in liquid nitrogen, and then transferred to a −80° C. freezer for storage. Virus titer was determined by automated plaque assay in HEp-2 cells following methods described previously (Wen Z. et al.; 2019).
Calu-1 cells were purchased from ATCC (Cat #HTB-54) and were expanded in growth media (DMEM containing 10% FBS, 100 U/ml Penicillin-Streptomycin). To make ARF, cell culture media was removed and discarded and the cell layer was briefly rinsed with PBS to remove serum. 2.5 mL of TrypLE Express solution were added and cells incubated until dislodged, to which growth media was added and the cells were resuspended by gentle pipetting. Cells were counted for concentration and viability as determined by ViCell. Cells were centrifuged at RT, 300 g for 5 minutes to pellet cells. The supernatant was gently aspirated and the pellet was flicked to loosen cells. Cells were resuspended in an appropriate volume of freezing medium (DMEM containing 10% DMSO, 10% FBS, 100 U/ml Penicillin-Streptomycin) to achieve a concentration of 5×10^6 cells/mL. 1 mL aliquots of the cell suspension were transferred to freezing vials. The vials were put into an upright container in a −80° C. freezer overnight before transferring vials to liquid nitrogen for storage.
Assay ready freezedown (ARF, generation described separately) Calu-1 cells (ATCC HTB-54) were used. Compound plates were prepared by dispensing compounds dissolved in DMSO into the wells of a 384 well Corning® 3985 plate with an ECHO acoustic dispenser and compounds were tested in 10-point serial 3-fold dilution. […] To set up the assay, ARF vial(s) were thawed in a 37° C. water bath and were then resuspended into assay media (DMEM containing 2% FBS, 100 U/ml Penicillin-Streptomycin). Cells were counted using default parameters on ViCell and diluted to 20,000 cells/mL in assay media. RSV-A2-GFP virus was added to cells at 24,000 pfu/ml (MOI=1.2) and mixed by gentle inversion. 10 μL/well of 100% DMSO was dispensed as CellTiter-Glo (CTG) assay Max_E controls wells. The cells were dispensed at 50 μL/well using Bravo with 50 μL filtered tips into compound plates. Plates were covered with MicroClime lids, loaded with 7.5 mL of assay media to minimize evaporation, and were incubated at 37° C. and 5% CO2 for 96 hrs. Following incubation, distinct, GFP-expressing cells were counted using an Acumen imaging system with appropriate settings. A same-well CTG assay was performed by adding 10 μL/well reconstituted CellTiter-Glo reagent (Promega G7573) and plates were read on PerkinElmer Envision according to manufacturer's instructions. Raw data were loaded and analyzed in ActivityBase. Antiviral IC50 and cytotoxicity CC50 values were determined using a 4 parameter logistic fit based on the Levenberg-Marquardt algorithm. Model: 205-4 Parameter Logistic.

[3] = human metapneumovirus, Vero, 48 h, read-out: hMPV EC50, VERO cells infected with hMPV-GFP, 48 hrs, GFP-expressing cells counted
[4] = human respiratory syncytial virus, Calu-1, 96 h, read-out: RSV EC50, Calu-1 cells infected with RSV-A2-GFP, 96 hrs, GFP-expressing cells counted
[5] = VERO cells infected with hMPV-GFP, 48 hrs, GFP-expressing cells counted, read-out: hMPV EC50
[6] = Calu-1 cells infected with RSV-A2-GFP, 96 hrs, GFP-expressing cells counted, read-out: RSV EC50

| Compound | EC50 [1, 3] [nM] | EC50 [2, 4] [nM] | EC50 [1, 5] [nM] | EC50 [2, 6] [nM] | further results |
| --- | --- | --- | --- | --- | --- |
| Cn1nc(-c2ncccn2)c(Cl)c1C(=O)N1C[C@@H]2[C@H](C1)[C@H]2Oc1cc(C(C)(C)N)cc(-c2ccc(F)cc2)n1 [Example 53, ((1R,5S,6s)-6-((4-(2-aminopropan-2-yl)-6-(4-fluorophenyl)pyridin-2-yl)oxy)-3-azabicyclo[3.1.0]hexan-3-yl)(4-chloro-1-methyl-3-(pyrimidin-2-yl)-1H-pyrazol-5-yl)methanone] | > 100 | < 10 |  |  |  |
| Cn1nc(-c2cccc(F)n2)cc1C(=O)N1C[C@@H]2[C@H](C1)[C@H]2Oc1cc(C(C)(C)N)cc(-c2ccc(F)cc2)n1 [Example 50, ((1R,5S,6s)-6-((4-(2-aminopropan-2-yl)-6-(4-fluorophenyl)pyridin-2-yl)oxy)-3-azabicyclo[3.1.0]hexan-3-yl)(3-(6-fluoropyridin-2-yl)-1-methyl-1H-pyrazol-5-yl)methanone] | 10 to 100 | < 10 |  |  |  |
| Cc1nc(-c2ncccn2)sc1C(=O)N1C[C@@H]2[C@H]1C[C@H]2Oc1cc(C(C)(C)N)cc(-c2ccc(F)cc2)n1 (single isomer, unassigned) [Example 1B] |  |  |  |  | EC50 ([1]; read-out: hMPV EC50, VERO cells infected with hMPV-GFP, 48 hrs, GFP-expressing cells counted): > 100 nM; EC50 ([2]; read-out: RSV EC50, Calu-1 cells infected with RSV-A2-GFP, 96 hrs, GFP-expressing cells counted): < 10 nM |
| CCc1nc(-c2ncccn2)sc1C(=O)N1C[C@@H]2[C@H](C1)[C@H]2Oc1cc(C(C)(C)N)cc(-c2ccc(F)cc2)n1 [Example 10, ((1R,5S,6s)-6-((4-(2-aminopropan-2-yl)-6-(4-fluorophenyl)pyridin-2-yl)oxy)-3-azabicyclo[3.1.0]hexan-3-yl)(4-ethyl-2-(pyrimidin-2-yl)thiazol-5-yl)methanone] |  |  | 10 to 100 | < 10 |  |
| CC(C)(N)c1cc(O[C@H]2[C@@H]3CN(C(=O)c4cn(-c5ncccn5)nc4CO)C[C@@H]32)nc(-c2ccc(F)c(F)c2)c1 [Example 95, ((1R,5S,6s)-6-((4-(2-aminopropan-2-yl)-6-(3,4-difluorophenyl)pyridin-2-yl)oxy)-3-azabicyclo[3.1.0]hexan-3-yl)(3-(hydroxymethyl)-1-(pyrimidin-2-yl)-1H-pyrazol-4-yl)methanone] | > 100 | < 10 |  |  |  |
| Cc1ccc(-c2cc(C(C)(C)N)cc(O[C@H]3[C@@H]4CN(C(=O)c5sc(-c6ncccn6)nc5C)C[C@@H]43)n2)cc1C [Example 32, ((1R,5S,6s)-6-((4-(2-aminopropan-2-yl)-6-(3,4-dimethylphenyl)pyridin-2-yl)oxy)-3-azabicyclo[3.1.0]hexan-3-yl)(4-methyl-2-(pyrimidin-2-yl)thiazol-5-yl)methanone] |  |  | > 100 | < 10 |  |
| CC(C)(N)c1cc(O[C@H]2[C@@H]3CN(C(=O)c4cn(-c5ncccn5)nc4C(F)(F)F)C[C@@H]32)nc(-c2ccc(F)c(F)c2)c1 [Example 92, ((1R,5S,6s)-6-((4-(2-aminopropan-2-yl)-6-(3,4-difluorophenyl)pyridin-2-yl)oxy)-3-azabicyclo[3.1.0]hexan-3-yl)(1-(pyrimidin-2-yl)-3-(trifluoromethyl)-1H-pyrazol-4-yl)methanone] |  |  | > 100 | < 10 |  |
| CCC(C)(N)c1cc(OC2[C@H]3CN(C(=O)c4cn(-c5ncccn5)nc4C)C[C@@H]23)nc(-c2ccc(F)cc2)c1 (single isomer, unassigned; enantiomer 1) [Example 116A] |  |  | > 100 | < 10 |  |
| CCc1nn(-c2ncccn2)cc1C(=O)N1C[C@@H]2[C@H]1C[C@H]2Oc1cc(C(C)(C)N)cc(-c2ccc(F)cc2)n1 (single isomer, unassigned; enantiomer 2) [Example 5] | > 100 | < 10 |  |  |  |
| CC(C)(N)c1cc(O[C@H]2[C@@H]3CN(C(=O)c4cn(-c5ncccn5)nc4OC(F)F)C[C@@H]32)nc(-c2ccc(F)cc2)c1 [Example 69, ((1R,5S,6s)-6-((4-(2-aminopropan-2-yl)-6-(4-fluorophenyl)pyridin-2-yl)oxy)-3-azabicyclo[3.1.0]hexan-3-yl)(3-(difluoromethoxy)-1-(pyrimidin-2-yl)-1H-pyrazol-4-yl)methanone] |  |  | > 100 | < 10 |  |
| Cc1nc(-c2ncccn2)sc1C(=O)N1C[C@@H]2[C@H](C1)[C@H]2Oc1cc(C(C)(C)N)cc(-c2ccc(C(F)(F)F)c(F)c2F)n1 [Example 31, ((1R,5S,6s)-6-((4-(2-aminopropan-2-yl)-6-(2,3-difluoro-4-(trifluoromethyl)phenyl)pyridin-2-yl)oxy)-3-azabicyclo[3.1.0]hexan-3-yl)(4-methyl-2-(pyrimidin-2-yl)thiazol-5-yl)methanone] |  |  | 10 to 100 | < 10 |  |
